# Patent US20230391871A1, “MONOAMINE OXIDASE BLOCKADE THERAPY FOR TREATING CANCER THROUGH REGULATING TUMOR ASSOCIATED MACROPHAGES (TAMS)” (THE REGENTS OF THE UNIVERSITY OF CALIFORNIA, priority 2020, published 2023)
# Legend:
# [1] = tested on: A375-A2-ESO tumour cells / ESO-T cells / polarized MDMs
# Method: (§1) FIG. 6: MAO-A blockade for cancer immunotherapy-human TAM and clinical data correlation studies. a, Studying the MAOA gene expression in human M1- and M2-like macrophages. A transcriptome data set (GSE35449) was analyzed using the prioritization function of a Tumour Immune Dysfunction and Exclusion (TIDE) computational method. Heatmaps are presented, showing the M2-like/M1-like mRNA fold change of MAOA gene as well as a selected group of immunosuppressive, immunostimulatory, and immune checkpoints signature genes. b-d, Studying the MAO-A expression in in vitro differentiated and IL-4/IL-13-polarized human monocyte-derived macrophages (MDMs: n=4). MDMs were generated by culturing healthy donor peripheral blood monocytes over 6 days, followed by stimulation with IL-4 and IL-13 for another 2 days. NC, no cytokine stimulation. (b,c) QPCR analyses of MAOA mRNA expression in MDMs over the 6-day MDM differentiation culture (b) and post the IL-4/IL-13-induced polarization (c). (d) Western blot analyses of MAO-A protein expression in IL-4/IL-13-polarized MDMs. e-g, Studying the in vitro polarization of human MDMs (n=3). MDMs were stimulated with IL-4/IL-13 for 2 days, in the presence or absence of phenelzine (Phe, 20 μM) treatment. NC, no cytokine stimulation: NT, no phenelzine treatment. (e) FACS analyses of CD206 expression on MDMs. (f,g) QPCR analyses ALOX15 (f) and (CD200R1 (g) mRNA expression in MDMs. h-j, Studying the in vivo polarization of human macrophages in a human Tumour-TAM Co-Inoculation xenograft mouse model (n=4). (h) Experimental design. FACS-sorted healthy donor peripheral blood monocytes were mixed with human A375 melanoma cells and s.c. injected into NSG mice to form solid tumours, with or without phenelzine treatment (Phe or NT). (i,j) FACS analyses of CD206 (i) and CD273 (j) expression on TAMs (gated as hCD45^+hCD11b^+hCD14^+ cells of total TIIs) isolated from experimental mice at day 10. k-m, Studying the in vitro efficacy of phenelzine in reprogramming human TAMs and enhancing human T cell antitumour reactivity (n=6). (k) Schematics showing an in vitro 3D human tumour/TAM/T cell organoid culture. A375-A2-ESO, human A375 melanoma cell line engineered to express an NY-ESO-1 tumour antigen as well as its matching HLA-A2 molecule: ESO-T, human peripheral blood CD8 T cells engineered to express an NY-ESO-1-specific TCR: Polarized TAM, human MDMs polarized in vitro with IL-4/IL-13 in the presence or absence of phenelzine treatment (denoted as TAM Phe or TAM NT, respectively). Cells were mixed and cultured as organoids for two days before analysis. (l,m) FACS quantification of live tumour cells (gated as hCD45^− cells) and ESO-T cells (gated as hCD45^+hCD8^+ESO-TCR^+ cells). n, QPCR analyses of MAOA mRNA expression in human TAMs isolated from ovarian cancer patient tumour samples (n=4). Monocytes isolated from random healthy donor peripheral blood were included as controls (n=10). Mo, monocyte. o-r, Clinical data correlation studies. The correlation function of a TIDE computational method was utilized. The association between the intratumoural MAOA gene expression levels and overall survival (OS) of cancer patients was computed through the two-sided Wald test in the Cox-PH regression. For each patient cohort, tumour samples were divided into the MAOA-high (samples with MAOA expression one standard deviation above the average) and MAOA-low (remaining samples) groups, followed by analysing the OS of each group. TIDE analyses of an ovarian cancer patient cohort (GSE26712, n=182: o), a lymphoma patient cohort (GSE10846, n=388: p), a breast cancers patient cohort (GSE9893, n=148: q), and a melanoma patient cohort with anti-PD-1 therapy (PRJEB23709, n=41: r). Representative of 1 (n), 2 (b-d, h-j) and 3 (e-g, k-m) experiments. All data are presented as the mean±SEM. ns, not significant, *P<0.05, **P<0.01, and ***P<0.001, by 1-way ANOVA (l, m), 2-way ANOVA (e-g), or by Student's t test (i, j, n).
# human TAMs = conditions: A375 + human monocytes s.c. in NSG mice; phenelzine 30 mg/kg/day i.p.; day 10
# Method: as §1
# [2] = tested on: human monocyte-derived macrophages (MDMs); conditions: phenelzine 20 μM, IL-4/IL-13 for 2 days
# Method: as §1
# [3] = ESO-T cells co-cultured with phenelzine-treated vs non-phenelzine-treated MDMs
compound,measurement,setting,value
NNCCc1ccccc1 [phenelzine],CD25 expression on ESO-T cells,[1]; [3],increased
same,CD62L expression on ESO-T cells,[1]; [3],decreased
same,ESO-T cell number,[1]; [3],increased
same,immunosuppressive effect of IL-4/IL-13-polarized MDMs on ESO-T cell-mediated killing of A375-A2-ESO tumour cells,"[1]; phenelzine treatment during MDM polarization, organoid cultured 2 days",largely alleviated
same,CD206 expression on human TAMs (FACS),human TAMs,decreased expression
same,CD273 expression on human TAMs (FACS),human TAMs,decreased expression
same,immunosuppressive polarization of human TAMs in vivo,human TAMs,effectively suppressed
same,ALOX15 mRNA expression in MDMs (QPCR),[2],decreased expression
same,CD200R1 mRNA expression in MDMs (QPCR),[2],decreased expression
same,CD206 expression on MDMs (FACS),[2],decreased expression
same,CD273 expression on MDMs (FACS),[2],decreased expression
same,IL-4/IL-13-induced immunosuppressive polarization of MDMs,[2],significantly inhibited
